Experimental data published in US20260355323A1, “CEREBLON-RECRUITING BCL-XL/BCL-2 DUAL DEGRADERS” (University of Florida Research Foundation, Incorporated, priority 2022, published 2026).

How the values were obtained:
[1] = system: RS4;11 acute lymphoblastic leukemia cells; experiment: Cell viability, tetrazolium-based MTS assay, RS4;11; details: Homo sapiens, RS4;11, 48 h, read-out: Anti-Cancer Activity EC50 (48 hr), RS4
Description: (§1) Acute lymphoblastic leukemia cells (MOLT-4 and RS4;11) were incubated with increasing concentrations of Bcl-xL/Bcl-2 degraders for 48 h. Cell viability was measured by tetrazolium-based MTS assay.

[2] = system: MOLT-4 acute lymphoblastic leukemia cells; experiment: Cell viability, tetrazolium-based MTS assay, MOLT-4; details: Homo sapiens, MOLT-4, 48 h; read-out: Anti-Cancer Activity EC50 (48 hr), MOLT-4
Description: as §1

[3] = system: WI-38 NC; experiment: Senolytic activity, cell viability (PrestoBlue HS), WI-38 NC; assay type: cell-based; details: for EC50: Homo sapiens, 72 h
Description: WI-38 and HUVEC cells were incubated with increasing concentrations of degraders for 72 h. Cell viability was measured using PrestoBlue HS cell viability reagent.

CC1(CN2CCN(C(=O)CN3CCN(C(=O)CNc4ccc5c(c4)C(=O)N(C4CCC(=O)NC4=O)C5=O)CC3)CC2)CCC(c2ccc(Cl)cc2)=C(CN2CCN(c3ccc(C(=O)NS(=O)(=O)c4ccc(N[C@H](CCN5CCOCC5)CSc5ccccc5)c(S(=O)(=O)C(F)(F)F)c4)cc3)CC2)C1 (stereo partly drawn) [Compound 17, 4-(4-((4′-chloro-4-((4-(2-(4-((2-(2,6-dioxopiperidin-3-yl)-1,3-dioxoisoindolin-5-yl)glycyl)piperazin-1-yl)acetyl)piperazin-1-yl)methyl)-4-methyl-3,4,5,6-tetrahydro-[1,1′-biphenyl]-2-yl)methyl)piperazin-1-yl)-N-((4-(((R)-4-morpholino-1-(phenylthio)butan-2-yl)amino)-3-((trifluoromethyl)sulfonyl)phenyl)sulfonyl)benzamide]
EC50 [1]: < 1 nM | EC50 [2]: < 1 nM | EC50 [3]: > 10000 nM

C[C@@]1(CN2CC(CN3CCN(c4ccc5c(c4)CN(C4CCC(=O)NC4=O)C5=O)CC3)C2)CCC(c2ccc(Cl)cc2)=C(CN2CCN(c3ccc(C(=O)NS(=O)(=O)c4ccc(N[C@H](CCN5CCCOCC5)CSc5ccccc5)c(S(=O)(=O)C(F)(F)F)c4)cc3)CC2)C1 (stereo partly drawn) [Compound 24, N-((4-(((R)-4-(1,4-oxazepan-4-yl)-1-(phenylthio)butan-2-yl)amino)-3-((trifluoromethyl)sulfonyl)phenyl)sulfonyl)-4-(4-(((4R)-4′-chloro-4-((3-((4-(2-(2,6-dioxopiperidin-3-yl)-1-oxoisoindolin-5-yl)piperazin-1-yl)methyl)azetidin-1-yl)methyl)-4-methyl-3,4,5,6-tetrahydro-[1,1′-biphenyl]-2-yl)methyl)piperazin-1-yl)benzamide]
EC50 [1]: < 1 nM | EC50 [2]: 1 to 10 nM | EC50 [3]: > 10000 nM

C[C@@]1(CN2CCN(CC#Cc3ccc4c(c3)CN(C3CCC(=O)NC3=O)C4=O)CC2)CCC(c2ccc(Cl)cc2)=C(CN2CCN(c3ccc(C(=O)NS(=O)(=O)c4ccc(N[C@H](CCN5CCCOCC5)CSc5ccccc5)c(S(=O)(=O)C(F)(F)F)c4)cc3)CC2)C1 (stereo partly drawn) [Compound 26, N-((4-(((R)-4-(1,4-oxazepan-4-yl)-1-(phenylthio)butan-2-yl)amino)-3-((trifluoromethyl)sulfonyl)phenyl)sulfonyl)-4-(4-(((4R)-4′-chloro-4-((4-(3-(2-(2,6-dioxopiperidin-3-yl)-1-oxoisoindolin-5-yl)prop-2-yn-1-yl)piperazin-1-yl)methyl)-4-methyl-3,4,5,6-tetrahydro-[1,1′-biphenyl]-2-yl)methyl)piperazin-1-yl)benzamide]
EC50 [1]: 1 to 10 nM | EC50 [2]: < 1 nM | EC50 [3]: > 10000 nM

C[C@@]1(CN2CCC(CC#Cc3ccc4c(c3)CN(C3CCC(=O)NC3=O)C4=O)CC2)CCC(c2ccc(Cl)cc2)=C(CN2CCN(c3ccc(C(=O)NS(=O)(=O)c4ccc(N[C@H](CCN5CCCOCC5)CSc5ccccc5)c(S(=O)(=O)C(F)(F)F)c4)cc3)CC2)C1 (stereo partly drawn) [Compound 29, N-((4-(((R)-4-(1,4-oxazepan-4-yl)-1-(phenylthio)butan-2-yl)amino)-3-((trifluoromethyl)sulfonyl)phenyl)sulfonyl)-4-(4-(((4R)-4′-chloro-4-((4-(3-(2-(2,6-dioxopiperidin-3-yl)-1-oxoisoindolin-5-yl)prop-2-yn-1-yl)piperidin-1-yl)methyl)-4-methyl-3,4,5,6-tetrahydro-[1,1′-biphenyl]-2-yl)methyl)piperazin-1-yl)benzamide]
EC50 [1]: < 1 nM | EC50 [2]: 1 to 10 nM | EC50 [3]: > 10000 nM

CN(CC#Cc1ccc2c(c1)CN(C1CCC(=O)NC1=O)C2=O)C[C@]1(C)CCC(c2ccc(Cl)cc2)=C(CN2CCN(c3ccc(C(=O)NS(=O)(=O)c4ccc(N[C@H](CCN5CCCOCC5)CSc5ccccc5)c(S(=O)(=O)C(F)(F)F)c4)cc3)CC2)C1 (stereo partly drawn) [Compound 37, N-((4-(((R)-4-(1,4-oxazepan-4-yl)-1-(phenylthio)butan-2-yl)amino)-3-((trifluoromethyl)sulfonyl)phenyl)sulfonyl)-4-(4-(((4R)-4′-chloro-4-(((3-(2-(2,6-dioxopiperidin-3-yl)-1-oxoisoindolin-5-yl)prop-2-yn-1-yl)(methyl)amino)methyl)-4-methyl-3,4,5,6-tetrahydro-[1,1′-biphenyl]-2-yl)methyl)piperazin-1-yl)benzamide]
EC50 [1]: 1 to 10 nM | EC50 [2]: < 1 nM | EC50 [3]: > 10000 nM

CC(C)N(CC#Cc1ccc2c(c1)CN(C1CCC(=O)NC1=O)C2=O)C[C@]1(C)CCC(c2ccc(Cl)cc2)=C(CN2CCN(c3ccc(C(=O)NS(=O)(=O)c4ccc(N[C@H](CCN5CCCOCC5)CSc5ccccc5)c(S(=O)(=O)C(F)(F)F)c4)cc3)CC2)C1 (stereo partly drawn) [Compound 38, N-((4-(((R)-4-(1,4-oxazepan-4-yl)-1-(phenylthio)butan-2-yl)amino)-3-((trifluoromethyl)sulfonyl)phenyl)sulfonyl)-4-(4-(((4R)-4′-chloro-4-(((3-(2-(2,6-dioxopiperidin-3-yl)-1-oxoisoindolin-5-yl)prop-2-yn-1-yl) (isopropyl)amino)methyl)-4-methyl-3,4,5,6-tetrahydro-[1,1′-biphenyl]-2-yl)methyl)piperazin-1-yl)benzamide]
EC50 [1]: 1 to 10 nM | EC50 [2]: 1 to 10 nM | EC50 [3]: > 10000 nM

C[C@@]1(CN2CCN(CCC#Cc3ccc4c(c3)CN(C3CCC(=O)NC3=O)C4=O)CC2)CCC(c2ccc(Cl)cc2)=C(CN2CCN(c3ccc(C(=O)NS(=O)(=O)c4ccc(N[C@H](CCN5CCCOCC5)CSc5ccccc5)c(S(=O)(=O)C(F)(F)F)c4)cc3)CC2)C1 (stereo partly drawn) [Compound 40, N-((4-(((R)-4-(1,4-oxazepan-4-yl)-1-(phenylthio)butan-2-yl)amino)-3-((trifluoromethyl)sulfonyl)phenyl)sulfonyl)-4-(4-(((4R)-4′-chloro-4-((4-(4-(2-(2,6-dioxopiperidin-3-yl)-1-oxoisoindolin-5-yl)but-3-yn-1-yl)piperazin-1-yl)methyl)-4-methyl-3,4,5,6-tetrahydro-[1,1′-biphenyl]-2-yl)methyl)piperazin-1-yl)benzamide]
EC50 [1]: < 1 nM | EC50 [2]: < 1 nM | EC50 [3]: > 10000 nM

C[C@@]1(CN2CC(CN3CCCN(c4ccc5c(c4)CN(C4CCC(=O)NC4=O)C5=O)CC3)C2)CCC(c2ccc(Cl)cc2)=C(CN2CCN(c3ccc(C(=O)NS(=O)(=O)c4ccc(N[C@H](CCN5CCCOCC5)CSc5ccccc5)c(S(=O)(=O)C(F)(F)F)c4)cc3)CC2)C1 (stereo partly drawn) [Compound 45, N-((4-(((R)-4-(1,4-oxazepan-4-yl)-1-(phenylthio)butan-2-yl)amino)-3-((trifluoromethyl)sulfonyl)phenyl)sulfonyl)-4-(4-(((4R)-4′-chloro-4-((3-((4-(2-(2,6-dioxopiperidin-3-yl)-1-oxoisoindolin-5-yl)-1,4-diazepan-1-yl)methyl)azetidin-1-yl)methyl)-4-methyl-3,4,5,6-tetrahydro-[1,1′-biphenyl]-2-yl)methyl)piperazin-1-yl)benzamide]
EC50 [1]: 1 to 10 nM | EC50 [2]: 1 to 10 nM | Senolytic Activity EC50 (72 hr), WI-38 NC [3]: ++ (100-10 μM)

C[C@@]1(CN2CCC(CCc3ccc4c(c3)CN(C3CCC(=O)NC3=O)C4=O)CC2)CCC(c2ccc(Cl)cc2)=C(CN2CCN(c3ccc(C(=O)NS(=O)(=O)c4ccc(N[C@H](CCN5CCCOCC5)CSc5ccccc5)c(S(=O)(=O)C(F)(F)F)c4)cc3)CC2)C1 (stereo partly drawn) [Compound 46, N-((4-(((R)-4-(1,4-oxazepan-4-yl)-1-(phenylthio)butan-2-yl)amino)-3-((trifluoromethyl)sulfonyl)phenyl)sulfonyl)-4-(4-(((4R)-4′-chloro-4-((4-(2-(2-(2,6-dioxopiperidin-3-yl)-1-oxoisoindolin-5-yl)ethyl)piperidin-1-yl)methyl)-4-methyl-3,4,5,6-tetrahydro-[1,1′-biphenyl]-2-yl)methyl)piperazin-1-yl)benzamide]
EC50 [1]: < 1 nM | EC50 [2]: < 1 nM | EC50 [3]: > 10000 nM

CC1CN(c2ccc3c(c2)CN(C2CCC(=O)NC2=O)C3=O)CC(C)N1CC1CCN(C[C@]2(C)CCC(c3ccc(Cl)cc3)=C(CN3CCN(c4ccc(C(=O)NS(=O)(=O)c5ccc(N[C@H](CCN6CCCOCC6)CSc6ccccc6)c(S(=O)(=O)C(F)(F)F)c5)cc4)CC3)C2)CC1 (stereo partly drawn) [Compound 50, N-((4-(((R)-4-(1,4-oxazepan-4-yl)-1-(phenylthio)butan-2-yl)amino)-3-((trifluoromethyl)sulfonyl)phenyl)sulfonyl)-4-(4-(((4R)-4′-chloro-4-((4-((4-(2-(2,6-dioxopiperidin-3-yl)-1-oxoisoindolin-5-yl)-2,6-dimethylpiperazin-1-yl)methyl)piperidin-1-yl)methyl)-4-methyl-3,4,5,6-tetrahydro-[1,1′-biphenyl]-2-yl)methyl)piperazin-1-8 yl)benzamide]
EC50 [1]: < 1 nM | EC50 [2]: < 1 nM | Senolytic Activity EC50 (72 hr), WI-38 NC [3]: ++ (100-10 μM)

C[C@@]1(CN2CCC(CCN3CCN(c4ccc5c(c4)CN(C4CCC(=O)NC4=O)C5=O)CC3)CC2)CCC(c2ccc(Cl)cc2)=C(CN2CCN(c3ccc(C(=O)NS(=O)(=O)c4ccc(N[C@H](CCN5CCCOCC5)CSc5ccccc5)c(S(=O)(=O)C(F)(F)F)c4)cc3)CC2)C1 (stereo partly drawn) [Compound 65, N-((4-(((R)-4-(1,4-oxazepan-4-yl)-1-(phenylthio)butan-2-yl)amino)-3-((trifluoromethyl)sulfonyl)phenyl)sulfonyl)-4-(4-(((4R)-4′-chloro-4-((4-(2-(4-(2-(2,6-dioxopiperidin-3-yl)-1-oxoisoindolin-5-yl)piperazin-1-yl)ethyl)piperidin-1-yl)methyl)-4-methyl-3,4,5,6-tetrahydro-[1,1′-biphenyl]-2-yl)methyl)piperazin-1-yl)benzamide]
EC50 [1]: < 1 nM | EC50 [2]: < 1 nM | EC50 [3]: > 10000 nM
